Measurements taken from patent publication US9884825B2, “Curcumin analogs and methods of making and using thereof” (Georgia State University Research Foundation, Inc., priority 2012, dated 2018).

Columns and labels:
[1] = system: human cervical cancer cells (HeLa); experiment: MTT cytotoxicity assay, HeLa cells; type: cell-based; settings: Homo sapiens, HeLa; Table 3, SM compounds; read-out: IC50 (μM) against Hela cell
Method: Two cell human cancer cell lines were used in this study: human cervical cancer cells (HeLa) and human embryonic kidney 293 cells (Hek). The cell lines were obtained from ATCC (Rockville, Md., USA). Cell lines were cultured at 37° C. and 5% CO2 in DMEM medium with 10% fetal bovine serum (FBS) and 1% penicillin/streptomycin (all obtained from GibcoBRL, Grand Island, N.Y.). Cells were passaged three times weekly by trypsinisation with 0.25% trypsin/0.02% EDTA solution (Sigma) into 75 cm^2 tissue culture flasks (Nunc, Denamark).
Both human cervical cancer cells (HeLa) and human embryonic kidney 293 cells (Hek) cell lines were seeded into 96-well plate (2.5×10^4 in 100 μL per well). Testing compounds were dissolved or suspended in DMSO to make 10 mM stock solutions. Addition of compounds was performed after adherent cells reached 40-50% confluence. After incubation for 48 h at 37° C. in humidified atmosphere with 5% CO2, 10 μL of MTT (5 mg/mL in PBS) was added to each well and incubated for another 4 h. The culture medium was then aspirated and 100 μL of DMSO was added to each well. Optical densities at 490 nm were measured by microplate reader (PERKINELMER VICTOR 3V model 1420). All tests were performed in triplicates. Doxorubicin was used as a positive control and the same amount DMSO without compound was used as negative control. IC50 values were obtained from the curve fitting by using Sigma plot10.

Molt4 cell = experiment: Cytotoxicity against MOLT4 cell line; type: cell-based; settings: Homo sapiens, MOLT-4; Table 3, SM compounds

SMILES	IC50 [1] [µM]	IC50 (Molt4 cell) [µM]
COc1cc(/C=C2\CC/C(=C\c3ccc(OCCn4ccnc4)c(OC)c3)C2=O)ccc1OCCn1ccnc1 [SM223]	> 2.5	> 2.5
COc1cc(/C=C2\CC/C(=C\c3ccc(OCCN4CCCCC4)c(OC)c3)C2=O)ccc1OCCN1CCCCC1 [SM226]	0.02	0.4
COc1cc(/C=C2\CC/C(=C\c3ccc(OCCN(C)C)c(OC)c3)C2=O)ccc1OCCN(C)C [SM229]	0.03	0.5
COc1cc(/C=C2\CC/C(=C\c3ccc(OCCn4ccnc4C)c(OC)c3)C2=O)ccc1OCCn1ccnc1C [SM232]	0.1	0.9
